Assays:
Assay in all cases: relative viability (nuclei count vs DMSO), 5 days (fraction); higher = more cells survive
SGI-1776 + Trametinib = compound: CN1CCC(CNc2ccc3ncc(-c4cccc(OC(F)(F)F)c4)n3n2)CC1 [SGI-1776] + CC(=O)Nc1cccc(-n2c(=O)n(C3CC3)c(=O)c3c(Nc4ccc(I)cc4F)n(C)c(=O)c(C)c32)c1 [Trametinib] (partner 0.02 µM)
Summary of the method: (§1)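 Lung cancer cell lines were pin-tool dosed in 1536-well plates on the day after seeding, with either a lone drug or a fixed anchor-drug dose plus five library-drug doses (not always all listed) in √10 steps. Nuclei were counted on 4× images after 5 days. Relative viability is the ratio of treated-well to vehicle-well nuclei counts, with each value a median of duplicate plates.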

[1] = compound: C1COCCN1C2=NC(=NC3=C2OC4=C3C=CC=N4)C5=CC(=CC=C5)NC(=O)C6=CN=C(C=C6)N + CC(=O)c1c(C)c2cnc(Nc3ccc(N4CCNCC4)cn3)nc2n(C2CCCC2)c1=O [Palbociclib] (partner 0.5 µM)
Summary of the method: as §1

SGI-1776 + Alpelisib = compound: CN1CCC(CNc2ccc3ncc(-c4cccc(OC(F)(F)F)c4)n3n2)CC1 [SGI-1776] + Cc1nc(NC(=O)N2CCC[C@H]2C(N)=O)sc1-c1ccnc(C(C)(C)C(F)(F)F)c1 [Alpelisib] (partner 2 µM)
Summary of the method: as §1

Entinostat + Luminespib = compound: Nc1ccccc1NC(=O)c1ccc(CNC(=O)OCc2cccnc2)cc1 [Entinostat] + CCNC(=O)c1noc(-c2cc(C(C)C)c(O)cc2O)c1-c1ccc(CN2CCOCC2)cc1 [Luminespib] (partner 0.01 µM)
Summary of the method: as §1

Cell Line | relative viability (SGI-1776 + Trametinib; first compound 0.08 µM) | relative viability (SGI-1776 + Trametinib; first compound 0.8 µM) | relative viability (SGI-1776 + Trametinib; first compound 2.53 µM) | relative viability (SGI-1776 + Trametinib; first compound 8 µM) | relative viability ([1]; first compound 0.02 µM) | relative viability ([1]; first compound 0.06325 µM) | relative viability ([1]; first compound 0.2 µM) | relative viability ([1]; first compound 0.6325 µM) | relative viability ([1]; first compound 2 µM) | relative viability (SGI-1776 + Alpelisib; first compound 0.08 µM) | relative viability (SGI-1776 + Alpelisib; first compound 0.8 µM) | relative viability (SGI-1776 + Alpelisib; first compound 2.53 µM) | relative viability (SGI-1776 + Alpelisib; first compound 8 µM) | relative viability (Entinostat + Luminespib; first compound 0.02 µM) | relative viability (Entinostat + Luminespib; first compound 0.06325 µM) | relative viability (Entinostat + Luminespib; first compound 0.2 µM) | relative viability (Entinostat + Luminespib; first compound 0.6325 µM) | relative viability (Entinostat + Luminespib; first compound 2 µM)
NCI-H1651 | 0.806 | 0.852 | 0.843 | 0.746 | 0.51 | 0.509 | 0.499 | 0.495 | 0.395 | 0.97 | 0.957 | 0.834 | 0.752 | 0.795 | 1.01 | 0.742 | 0.724 | 0.64
LC-2-ad | 0.885 | 0.926 | 0.931 | 0.822 | 0.518 | 0.484 | 0.469 | 0.526 | 0.396 | 1.06 | 1 | 0.94 | 0.731 | 1.04 | 0.936 | 0.816 | 0.65 | 0.298
NCI-H1734 | 0.686 | 0.742 | 0.786 | 0.603 | 0.413 | 0.355 | 0.342 | 0.33 | 0.271 | 0.69 | 0.798 | 0.733 | 0.559 | 0.227 | 0.204 | 0.185 | 0.213 | 0.181
NCI-H441 | 0.497 | 0.51 | 0.5 | 0.294 | 0.208 | 0.178 | 0.198 | 0.175 | 0.198 | 0.751 | 0.478 | 0.697 | 0.588 | 0.401 | 0.34 | 0.29 | 0.245 | 0.176
NCI-H727 | 0.454 | 0.38 | 0.391 | 0.372 | 0.579 | 0.592 | 0.613 | 0.666 | 0.77 | 0.75 | 0.532 | 0.655 | 0.538 | 0.326 | 0.413 | 0.364 | 0.328 | 0.459
NCI-H23 | 0.328 | 0.29 | 0.372 | 0.304 | 0.622 | 0.555 | 0.457 | 0.524 | 0.225 | 0.722 | 0.725 | 0.616 | 0.57 | 0.187 | 0.21 | 0.229 | 0.199 | 0.18
NCI-H1395 | 1.16 | 0.984 | 0.951 | 0.887 | 0.602 | 0.597 | 0.617 | 0.592 | 0.645 | 1.09 | 1.02 | 0.996 | 0.631 | 0.711 | 0.663 | 0.634 | 0.659 | 0.6
NCI-H460 | 0.127 | 0.162 | 0.208 | 0.154 | 0.149 | 0.186 | 0.112 | 0.146 | 0.0961 | 0.488 | 0.481 | 0.433 | 0.121 | 0.0255 | 0.0353 | 0.0291 | 0.0258 | 0.0328

— the supplement of paper PMC10307832
